Among the test systems are A498; CCRF-CEM; COLO 205; HCC 2998; HCT-116; HCT-15; K562; MDA-MB-435; Malme-3M; NCI-H226; NCI-H522; NCI/ADR-RES; OVCAR-3; PC-3; RPMI-8226; RXF 393; SK-MEL-5; U-251; UO-31; CAKI-1.
What all share (experiment): growth of human tumour cells (NCI), 48 h

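Five concentrations, 48 hours, 96-well plates. The concentration for 50% growth inhibition is given as GI50.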 Activity calls are given as the source filed them. Cut-off read from the data, not from the text of the source: active = GI50 up to about 1.1 µM and inactive = higher.

For the compound `CCCCOc1ccc(NC(=N)Nc2ccc(Cl)cc2)cc1`, the GI50 was 0.443 µM (active) with A498; 0.251 µM (active) in the experiment with CCRF-CEM; 0.125 µM (active) in the experiment with COLO 205; 0.358 µM (active) in the experiment with HCC 2998; 0.421 µM (active) in the experiment on HCT-116; 9.35 µM in the experiment with HCT-15. Moreover, the GI50 in the experiment on K562 is 3.01 µM (inactive); in the experiment with MDA-MB-435 it was 11.1 µM (inactive); with Malme-3M, 3.47 µM (inactive); in the experiment on NCI-H226, 12.7 µM (inactive); in the experiment on NCI-H522, 5.86 µM (inactive); in the experiment on NCI/ADR-RES, 2.28 µM (inactive). Further, the GI50 was 10.2 µM (inactive) in the experiment on OVCAR-3; 2.06 µM (inactive) in the experiment on PC-3; 3.89 µM (inactive) in the experiment with RPMI-8226; 11.5 µM (inactive) in the experiment on RXF 393; 0.284 µM (active) in the experiment on SK-MEL-5; 9.68 µM (inactive) with U-251. The GI50 with UO-31 was 2.43 µM (inactive).

Regarding `[N-]=[N+]=C1C(=O)c2ccccc2-c2ccccc21`, the GI50 with A498 was 16.3 µM (inactive); in the experiment on CAKI-1, 37.4 µM (inactive); with CCRF-CEM, 20.2 µM (inactive); in the experiment with COLO 205, 32.1 µM (inactive); with HCC 2998, 51.3 µM (inactive); in the experiment on HCT-116, 28.1 µM (inactive). For the same compound, the GI50 in the experiment with HCT-15 was 29 µM; in the experiment on K562, 36.6 µM (inactive); in the experiment on MDA-MB-435, 40.7 µM (inactive); in the experiment with NCI-H226 it was 30 µM (inactive); with NCI-H522, 24.4 µM (inactive); in the experiment with NCI/ADR-RES, 25.6 µM (inactive). In addition, the GI50 in the experiment with OVCAR-3 is 40.9 µM (inactive); with PC-3 it was 25.8 µM (inactive); in the experiment with RPMI-8226, 26.9 µM (inactive); in the experiment with RXF 393 it was 15.6 µM (inactive); with SK-MEL-5, 15.7 µM (inactive); with U-251 it was 31.3 µM (inactive). In addition, the GI50 with UO-31 is 27.2 µM (inactive).

For `Fc1ccc2nc3n(c2c1)C(c1c(Cl)cccc1Cl)SC3` (configuration not stated), the GI50 was > 100 µM (inactive) with A498; > 100 µM (inactive) in the experiment with CAKI-1; > 100 µM (inactive) with COLO 205; > 100 µM (inactive) in the experiment with HCC 2998; > 100 µM (inactive) in the experiment on HCT-116; greater than 100 µM with HCT-15. Also, the GI50 with MDA-MB-435 is > 100 µM (inactive); with Malme-3M, > 100 µM (inactive); with NCI-H226, > 100 µM (inactive); in the experiment on NCI-H522, 29.4 µM (inactive); with NCI/ADR-RES it was > 100 µM (inactive); in the experiment with OVCAR-3 it was > 100 µM (inactive). Moreover, the GI50 in the experiment on PC-3, in the experiment with RPMI-8226, with RXF 393, in the experiment on SK-MEL-5, in the experiment on U-251 and in the experiment with UO-31 was > 100 µM (inactive) throughout.

As to `COC(=O)C1CC23C=CCN4CC(C2C)C2(c5ccccc5NC12)C43` (configuration not stated), the GI50 with A498, in the experiment on CAKI-1, with CCRF-CEM, in the experiment with COLO 205, with HCC 2998 and with HCT-116 was > 100 µM (inactive) each time. Further, the GI50 is greater than 100 µM in the experiment with HCT-15; > 100 µM (inactive) with K562; > 100 µM (inactive) in the experiment on MDA-MB-435; > 100 µM (inactive) with Malme-3M; > 100 µM (inactive) in the experiment on NCI-H226; > 100 µM (inactive) in the experiment with NCI-H522. The GI50 in the experiment on NCI/ADR-RES, with OVCAR-3, with PC-3, with RPMI-8226, in the experiment on RXF 393 and in the experiment on SK-MEL-5 was > 100 µM (inactive) in each case. Further, the GI50 in the experiment on U-251 is > 100 µM (inactive).

`Cc1ccc(C(=O)N/N=C(\N=N\c2ccc([N+](=O)[O-])cc2)c2ccc(N(CCC#N)CCC#N)cc2C)cc1`: the GI50 in the experiment with A498 was 64.9 µM (inactive); in the experiment with CAKI-1, > 100 µM (inactive); in the experiment with CCRF-CEM, 39.8 µM (inactive); in the experiment with COLO 205, 50 µM (inactive); in the experiment on HCC 2998, 54.1 µM (inactive); with HCT-116, 54.8 µM (inactive). Besides, the GI50 in the experiment with HCT-15 is greater than 100 µM; in the experiment on K562, 66.2 µM (inactive); in the experiment with MDA-MB-435 it was 67.8 µM (inactive); in the experiment on Malme-3M it was > 100 µM (inactive); with NCI-H226, 31.3 µM (inactive); with NCI/ADR-RES, > 100 µM (inactive). In addition, the GI50 is 39.6 µM (inactive) in the experiment on OVCAR-3; 50.1 µM (inactive) in the experiment on PC-3; > 100 µM (inactive) in the experiment with RPMI-8226; 16.7 µM (inactive) in the experiment on RXF 393; 75.3 µM (inactive) with SK-MEL-5; > 100 µM (inactive) with U-251. Further, in the experiment on UO-31, the GI50 was 86.7 µM (inactive).

For `Cn1cc(-c2ccc(CCOC3CCCCO3)cc2)c2c(C#N)cccc21` (configuration not stated), the GI50 was 61.2 µM (inactive) in the experiment with A498; > 100 µM (inactive) with CAKI-1; 24.4 µM (inactive) in the experiment on CCRF-CEM; 27 µM (inactive) in the experiment on COLO 205; 35.7 µM (inactive) in the experiment on HCC 2998; 43.3 µM (inactive) in the experiment on HCT-116. In addition, the GI50 with HCT-15 is 16.6 µM; with K562, 22.9 µM (inactive); with MDA-MB-435, 36.9 µM (inactive); with Malme-3M, 83 µM (inactive); in the experiment with NCI-H522, > 100 µM (inactive); in the experiment on NCI/ADR-RES it was 30.9 µM (inactive). Besides, the GI50 in the experiment on OVCAR-3 is 67.8 µM (inactive); in the experiment with PC-3, 27.2 µM (inactive); in the experiment on RPMI-8226 it was 41.9 µM (inactive); with RXF 393, 45.3 µM (inactive); in the experiment with SK-MEL-5, > 100 µM (inactive); with U-251 it was 28.6 µM (inactive). Besides, in the experiment on UO-31, the GI50 was 28 µM (inactive).

`C=C(Cl)C(Cl)(CBr)CCC(Br)C(C)(C)Br` (configuration not stated): the GI50 is 10.5 µM (inactive) in the experiment with A498; 2.47 µM (inactive) with CAKI-1; 6.21 µM (inactive) in the experiment with CCRF-CEM; 2.75 µM (inactive) in the experiment with COLO 205; 5.75 µM (inactive) in the experiment with HCC 2998; 1.74 µM (inactive) in the experiment on HCT-116. In addition, the GI50 is 3.03 µM with HCT-15; 4.73 µM (inactive) in the experiment on K562; 9.44 µM (inactive) in the experiment with MDA-MB-435; 14.3 µM (inactive) in the experiment with Malme-3M; 20.1 µM (inactive) with NCI-H226; 5.86 µM (inactive) in the experiment with NCI-H522. Also, the GI50 with NCI/ADR-RES is 5.66 µM (inactive); in the experiment on OVCAR-3, 2.93 µM (inactive); in the experiment with PC-3 it was 2.31 µM (inactive); with RPMI-8226, 0.426 µM (active); in the experiment with RXF 393, 1.8 µM (inactive); in the experiment on SK-MEL-5, 16.6 µM (inactive). Further, the GI50 with U-251 was 1.77 µM (inactive); in the experiment on UO-31, 8.17 µM (inactive).

As to `O=C(c1ccccc1)N1C(=S)NC(=N/c2ccccc2)/C1=N\c1ccccc1`, the GI50 in the experiment on A498, in the experiment on CAKI-1, with CCRF-CEM, in the experiment on COLO 205, with HCC 2998 and with HCT-116 was > 100 µM (inactive) each time. Besides, the GI50 with HCT-15 is greater than 100 µM; in the experiment with K562, > 100 µM (inactive); with MDA-MB-435 it was > 100 µM (inactive); in the experiment with Malme-3M, > 100 µM (inactive); in the experiment with NCI-H226 it was > 100 µM (inactive); in the experiment on NCI-H522, > 100 µM (inactive). Further, the GI50 was > 100 µM (inactive) in the experiment on NCI/ADR-RES; > 100 µM (inactive) in the experiment with PC-3; > 100 µM (inactive) in the experiment with RPMI-8226; 33.9 µM (inactive) with RXF 393; > 100 µM (inactive) in the experiment on SK-MEL-5; > 100 µM (inactive) with U-251. Moreover, in the experiment with UO-31, the GI50 is > 100 µM (inactive).

On to `COc1cc(/C=C/C(=O)OC2C(O)C3CC(OC(=O)c4cc(OC)c(OC)c(OC)c4)CC2N3C)cc(OC)c1OC` (configuration not stated), for which the GI50 was 8.04 µM (inactive) in the experiment on A498; 27 µM (inactive) with CAKI-1; 17.9 µM (inactive) in the experiment with CCRF-CEM; 12.3 µM (inactive) in the experiment on COLO 205; 15 µM (inactive) in the experiment on HCC 2998; 20.7 µM (inactive) in the experiment on HCT-116. Moreover, the GI50 in the experiment with HCT-15 is 28.1 µM; with K562, > 50 µM (inactive); in the experiment with MDA-MB-435 it was 23.6 µM (inactive); with NCI-H226, 12.1 µM (inactive); in the experiment on NCI-H522, 19.5 µM (inactive); with NCI/ADR-RES, 13.7 µM (inactive). Besides, the GI50 with OVCAR-3 is 8.02 µM (inactive); in the experiment on PC-3 it was 35.6 µM (inactive); in the experiment with RPMI-8226 it was 33 µM (inactive); in the experiment with RXF 393 it was 15.9 µM (inactive); in the experiment with SK-MEL-5 it was 16.5 µM (inactive); with U-251, 40.5 µM (inactive). Besides, in the experiment on UO-31, the GI50 is 10.4 µM (inactive).

`O=C1N=C(SC2OC(CO)C(O)C(O)C2O)S/C1=C\c1ccccc1` (configuration not stated): the GI50 in the experiment with A498 was > 100 µM (inactive); in the experiment on CAKI-1, > 100 µM (inactive); in the experiment on CCRF-CEM, > 100 µM (inactive); with HCC 2998, > 100 µM (inactive); in the experiment on HCT-15, greater than 100 µM; with K562, > 100 µM (inactive). The GI50 in the experiment with MDA-MB-435, with Malme-3M, in the experiment on NCI-H226, in the experiment on NCI-H522, in the experiment with NCI/ADR-RES and in the experiment with OVCAR-3 was > 100 µM (inactive) throughout. Also, the GI50 was > 100 µM (inactive) in the experiment with PC-3; > 100 µM (inactive) in the experiment on RPMI-8226; 25.6 µM (inactive) in the experiment with RXF 393; > 100 µM (inactive) with SK-MEL-5; > 100 µM (inactive) with UO-31.

As to `O=S(=O)(O)c1cc(S(=O)(=O)O)c2c(Nc3ccnc4ccccc34)ccc(S(=O)(=O)O)c2c1`, the GI50 with A498, with CAKI-1, in the experiment on CCRF-CEM, in the experiment with COLO 205, in the experiment with HCC 2998 and in the experiment with HCT-116 was > 100 µM (inactive) in each case. For the same compound, the GI50 in the experiment on HCT-15 is greater than 100 µM; in the experiment with MDA-MB-435, > 100 µM (inactive); in the experiment with Malme-3M, > 100 µM (inactive); with NCI-H226, > 100 µM (inactive); in the experiment with NCI-H522, > 100 µM (inactive); with NCI/ADR-RES it was > 100 µM (inactive). The GI50 in the experiment on OVCAR-3, in the experiment on PC-3, in the experiment on RPMI-8226, in the experiment with RXF 393, in the experiment on SK-MEL-5 and in the experiment on U-251 was > 100 µM (inactive) each time. The GI50 in the experiment with UO-31 was > 100 µM (inactive).
